Results taken from PMC4685272 (Scientific Reports, 2015).
Entries after “also recorded” stand apart in the source; their conditions may differ. Where two headings read alike, the source gives them in different places. Where a SMILES comes first, the peptide text is derived from it. Bridges are numbered along the chain shown (N, C = ends). Where no end group is shown, it is not given here.

Experiments:
[1] = Oxidative folding (disulfide formation) in Tris HCl pH 7.5; assay type: physicochemical; conditions: Tris HCl 100 mM pH 7.5, open vessel, RP-HPLC-ESI-MS after iodoacetamide alkylation
Description: Reduced HBD3 was dissolved in Tris HCl 100 mM pH 7.5 (final peptide concentration 0.5 mg/mL) and shaken in an open vessel, with periodic withdrawal of aliquots. After alkylation of the free thiol groups with iodoacetamide solution, 100 μg of each the aliquot were analysed through RP-HPLC-ESI-MS to evaluate the oxidation status. The remaining 200 μg were purified via RP-HPLC to eliminate excess iodoacetamide, lyophilized, and subjected to tryptic digestion. Tryptic fragments were then indentified through RP-HPLC-ESI-MS. The same procedure, except tryptic digestion, was used for peptides γ and ε. Full details are given in the SI.

[2] = human serum from an healthy donor [240 µl 20% (v/v) in PBS]; conditions: 37 °C, up to 24 h
human serum = conditions: up to 60 min
[3] = tested on: elastolytic protease cathepsins; conditions: cited from earlier work
CD98_103-630 = molecular target: T1, CD98_103-630 (Homo sapiens, UniProt P08195); test: SPR binding to immobilized CD98_103-630; conditions: for Koff1 / Koff2 / Kon2: 25 °C, immobilized CD98_103-630; for Kon1: Biacore T200, 25 °C, HBS-EP pH 7.4, immobilized CD98_103-630
T1 construct: GST-CD98 (102-630) and the truncated GST-CD98 (304-414); purchased Novus Biologicals, Littleton, CO
T1 sequence (P08195 102-630 isoform P08195-1): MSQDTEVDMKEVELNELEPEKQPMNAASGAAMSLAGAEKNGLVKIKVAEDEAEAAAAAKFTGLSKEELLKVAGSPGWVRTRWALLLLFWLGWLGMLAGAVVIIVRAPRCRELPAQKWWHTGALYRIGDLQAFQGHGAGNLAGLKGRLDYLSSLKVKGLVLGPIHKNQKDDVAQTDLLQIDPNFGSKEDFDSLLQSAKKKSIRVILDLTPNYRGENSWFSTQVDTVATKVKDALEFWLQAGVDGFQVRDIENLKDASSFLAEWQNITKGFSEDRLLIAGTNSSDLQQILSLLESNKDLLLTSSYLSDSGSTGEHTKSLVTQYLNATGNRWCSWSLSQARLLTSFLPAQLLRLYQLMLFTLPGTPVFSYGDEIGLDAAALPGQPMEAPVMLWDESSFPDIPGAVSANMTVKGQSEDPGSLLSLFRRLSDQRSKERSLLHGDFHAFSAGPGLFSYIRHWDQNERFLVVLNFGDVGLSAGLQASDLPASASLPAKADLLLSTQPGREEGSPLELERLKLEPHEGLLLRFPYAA
Description: (§1) Surface Plasmon Resonance experiments were performed as previously described. For details, see SI. […]
(§2) Surface Plasmon resonance. Surface Plasmon resonance (SPR) experiments were performed using a Biacore T200 system (GE Healthcare, Uppsala, Sweden), at 25 °C . Binding assays were carried out between various CD98 sequences and both reduced and oxidized HBD3. The residue numbering […]
(§3) (Novus Biologicals, Littleton, CO) were immobilized on a CM4 and/or a CM5 sensor chip (research grade) by the standard amine coupling procedure, using HBS-EP buffer (HEPES 10 mM, NaCl 150 mM, EDTA 3 mM, Surfactant P20 0.005%, pH 7.4), as running buffer. CD98 was immobilized through activation of the sensor chip with 60 µL of N-hydroxysuccinimide and N-ethyl-N-(dimethylaminopropyl)-carbodiimide at 10 µL min-1, followed by a 30 µL injection of protein diluted in 10 mM sodium acetate buffer, pH 4.0. Unreacted activated groups were blocked by a 60 µL injection of 1 M ethanolamine at 10 µL min-1. The final amount of immobilized CD98 was typically between ~ 1500 and 5000 RU, corresponding to a protein concentration of 15 ÷ 50 mg/mL on the surface layer. Subsequently, the peptides or full-length HBD3 were injected at various concentrations (100 nM–100 µM), using HBS-EP as running buffer. The binding assays were performed under previously optimized conditions14, i.e. a contact time of 120 s, a dissociation time of 1000 s, and a flow rate of 30 µL min-1.
(§4) The SPR sensorgrams were analyzed by curve-fitting using the Biacore T200 Evaluation software.
(§5) Dose response curves were plotted using the SPR sensorgrams and the corresponding fit. Various

CD98_304-414 = molecular target: T2, CD98_304-414 (Homo sapiens, UniProt P08195); test: SPR binding to immobilized CD98_304-414; conditions: 25 °C
T2 construct: GST-CD98 (102-630) and the truncated GST-CD98 (304-414); purchased Novus Biologicals, Littleton, CO
T2 sequence (P08195 304-414 isoform P08195-1): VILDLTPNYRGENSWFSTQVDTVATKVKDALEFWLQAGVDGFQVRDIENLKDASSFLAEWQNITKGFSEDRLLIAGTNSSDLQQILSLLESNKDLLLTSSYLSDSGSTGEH
Description: as §1, §2, §3, §4, §5

[4] = cited from earlier work
[5] = tested on: elastolytic protease cathepsins; conditions: cited from earlier work; remark: listed apart in the source
Description: We asked whether the γ-core motif within HBDs represents a primordial HDP that evolved into the full-length molecules of today. To answer the question, we analyzed the structural and biological properties of the β-hairpin peptide of HBD3, which is the smallest substructure encompassing the γ-core motif (Fig. 1B).

HSV-1 = test: HSV infectivity on Vero cell monolayers (plaque count); assay type: cell-based, Herpes simplex virus; conditions: for IC50: read-out: concentration showing 50% inhibition
Description: The antiviral activity of the γ-core peptides γ and ε in oxidized and reduced form was evaluated, in comparison with reduced HBD3, against HIV and HSV. To establish in which phase, if any, the peptides inhibit virus infectivity, we performed experiments in four conditions: a) peptides incubated with the virus before being added to the target cells (“virus pre-treatment”), b) peptides incubated with the cells before exposure to the virus (“cell pre-treatment”), c) simultaneous addition of peptides and virus to the target cells (“co-treatment”), and d) peptides added to the virus-exposed cells (“post-treatment”).
The antiviral activity of the peptides against human immunodeficiency virus (HIV) and herpes simplex virus (HSV) was measured as previously described. For details, see SI. […]
Antiviral Activity against Herpes Simplex Virus (HSV). Vero cells were grown in Dulbecco’s modified Eagle’s medium (DMEM) supplemented with 10% fetal calf serum. HSV-1 carrying a lacZ gene driven by the cytomegalovirus (CMV) IE-1 promoter to express beta-galactosidase was propagated as described elsewhere12. All experiments were conducted in parallel with no-peptide controls. The effect of peptides on the inhibition of HSV infectivity on cell monolayers13 was assessed as follows: (i) For “co-exposure” experiments, the cells were incubated with increasing concentrations of the peptides (1, 5, 10, 20, 50, 100 and 150 µM) and with the viral inoculum for 45 min at 37°C. Non -penetrated viruses were inactivated by citrate buffer at pH 3.0. Monolayers were fixed, stained with 5-bromo-4-chloro-3-indolyl-beta-D-galactopyranoside (X-gal) and plaque […]
numbers were scored. Experiments were performed in triplicate and the % inhibition was calculated vs. the no-peptide control; (ii) For “virus pre-exposure” experiments, approximately 2 x 10^4 PFU of HSV-1 were incubated with increasing concentrations of the peptides for 45 min at 37°C, then titrated on Vero cell monolayers; iii) For “cell pre-exposure” experiments, Vero cells were incubated with increasing concentrations of the peptides for 30 min at 4°C, and infected with serial dilutions of HSV-1 for 45 min at 37°C; and iv) For “po st-exposure” experiments, Vero cell monolayers were incubated with virus for 45 minutes at 37°C and afterwards the peptides were added to the inoculum, followed by an additional incubation period of 30 minutes at 37°C. […]

Molecule | Koff1 (CD98_103-630) | Koff2 (CD98_103-630) | Kon2 (CD98_103-630) | Kon1 (CD98_103-630) | Koff1 (CD98_304-414) | Koff2 (CD98_304-414) | Kon1 (CD98_304-414) | Kon2 (CD98_304-414) | also measured
CC[C@H](C)[C@@H]1NC(=O)[C@H](CCC(N)=O)NC(=O)[C@H](CCC(=O)O)NC(=O)[C@H](CCC(=O)O)NC(=O)[C@H](CCCCN)NC(=O)[C@@H]2CCCN2C(=O)[C@H](CC(C)C)NC(=O)[C@H](CO)NC(=O)[C@H](CO)NC(=O)[C@H](CC(C)C)NC(=O)[C@H](C(C)C)NC(=O)[C@H](C)NC(=O)[C@@H](NC(C)=O)CSSC[C@@H](C(N)=O)NC(=O)[C@H](CCCCN)NC(=O)CNC1=O [peptide δ, [S^23]HBD3_18–33] (Ac-CAVLSSLPKEEQIGKC-NH2; disulfide 1-16) | – | – | – | – | – | – | – | – | oxidation state (intramolecular disulfide) after 3 h [1]: still mostly reduced
Ac-CLPKEEQIGKSSTRGRKSC-NH2 | – | – | – | – | – | – | – | – | not cleaved [2]: found intact after 24 h incubation
Ac-CLPKEEQIGKSSTRGRKSCRRKK-NH2 | – | – | – | – | – | – | – | – | cleaved bond [2]: Arg20-Arg21, 6 h; also recorded: Lys22-Lys23, 6 h; also recorded: Cys19-Arg20, 6 h; fragment found (human serum): disulfide-bridged form (oxidized peptide γ)
GIINTLQKYYCRVRGGRCAVLSCLPKEEQIGKCSTRGRKCCRRKK | – | – | – | – | – | – | – | – | not cleaved (plasma): stable in plasma; fragment found [3]: the sequence from 22 to 45 amino acids residues of HBD3
[S^33,40]HBD3_23–41 [Peptide ε] | 5.48 ± 0.03 ×10^−2 s^−1 | 0.128 ± 0.04 ×10^−3 s^−1 | 1.24 ± 0.04 x10^−3 s^−1 | 0.73 ± 0.02 ×10^3 M^−1s^−1 | 5.38 ± 0.05 ×10^−2 s^−1 | 0.116 ± 0.06 ×10^−3 s^−1 | 0.71 ± 0.04 ×10^3 M^−1s^−1 | 5.67 ± 0.05 x10^−3 s^−1 | fold lower affinity for CD98 than HBD3 (CD98_103-630; from Table 1): 70 fold
human β-defensin 3 (GIINTLQKYYCRVRGGRCAVLSCLPKEEQIGKCSTRGRKCCRRKK; not fully specified (bridges); cysteine pairing not given here; UniProt P81534 23-67, looked up) [HBD3, full-length human β-defensin 3, parent host defence peptide, reference compound] | 2.10 ± 0.03 ×10^−2 s^−1 | 1.930 ± 0.03 ×10^−3 s^−1 | 9.03 ± 0.06 x10^−3 s^−1 | 8.51 ± 0.05 ×10^3 M^−1s^−1 | 1.26 ± 0.03 ×10^−2 s^−1 | 0.907 ± 0.007 ×10^−3 s^−1 | 4.65 ± 0.07 ×10^3 M^−1s^−1 | 5.44 ± 0.06 x10^−3 s^−1 | stability in human serum in words [4]: highly stable; degradation by cathepsins in words [5]: rapidly degraded; IC50 (HSV-1; cell pre-treatment): 10 µM; IC50 (HSV-1; co-exposure): 10 µM; efficacy against HSV in words (HSV-1; post-exposure / post-treatment conditions): no efficacy; IC50 (HSV-1; virus pre-exposure): 20 µM
